From patent publication US7122193B1 (priority 1994, dated 2006)
Where two headings read alike, the source gives them in different places. Ends that are not written are not given here. Peptide text beside a SMILES is read from it.

Legend:
[1] = target: MAb 11 × 2 (IgG3) anti-D peptide
[2] = target: MAb 11 × 7 (IgG3) anti-D peptide
trypsin = conditions: pH 7.4
in vitro = conditions: pH 7.4
[3] = test system: anti-virus serum raised in rabbit and serum against the 91–108 sequence expressed at the surface of Salmonella flagellin; assay type: binding; conditions: FIGS. 14 and 15
I-A^d class II molecules = I-A^d class II molecules (Mus musculus, UniProt P01921+P04228); assay type: cell-based
I-E^d class II molecules = I-E^d class II molecules (Mus musculus, UniProt P01904+P01915); assay type: cell-based
[4] = test system: peptide-primed T lymphocytes from BALB/c mice; assay type: cell-based, mouse
[5] = test system: peptide-primed T lymphocytes from BALB/c mice; assay type: cell-based, mouse; remark: listed apart in the source
BALB/c mice = conditions: mouse, in vivo
[6] = test system: I-E^d-restricted T-cell hybridomas 45G10, 44B1 and 41C1; assay type: cell-based, mouse
[7] = test system: TCR of peptide-primed lymph node T-cells; assay type: cell-based, mouse
[8] = test system: sera of patients suffering from various systemic rheumatic diseases; assay type: binding, human
HLA-A2 = assay type: binding, human
[9] = test system: IgG antibodies of sera of patients suffering from DLE and SS; assay type: binding, human
[10] = test system: IgG antibodies of sera of patients suffering from DLE and SS; assay type: binding, human; remark: listed apart in the source
Description: FIG. 6: ELISA reactivity of serum samples originating from patients suffering from DLE and SS with the parent peptide and the analogue RIb 277–291 of Ro52. The sera of the patients are diluted to 1:1,000. Only the antibody activity of the sub-class IgG is measured. The median values of the optical density are indicated. The broken line represents the upper limit of the normal population corresponding to the mean value of the optical density of 20 normal human sera+2 SD (standard deviation) (0.30 OD units).
Sera of female F1 lupous mice (NZB/W) were obtained from S. Batsford (Freibourg, Germany). The human sera originate from patients suffering from disseminated lupus erythematosus (DLE) and Sjögren's syndrome (SS). They were obtained from D. A. Isenberg (London), O. Meyer (Paris) and G. Fournié (Toulouse). The sera of healthy volunteers were obtained from J. L. Pasquali (Strasbourg).
The sera of lupous mice were tested by ELISA as described previously (Benkirane, N., Friede, M., Guichard, G., briand, J. P., Van Regenmortel, M. H. V. and Muller, S. (1993) Antigenicity and immunogenicity of modified synthetic peptides containing D-amino acid residues. J. Biol. Chem., 268: 26279–26285). Only the antibodies of isotype IgG were tested. […] Clin. Exp. Immunol., 95: 397–407) except in the case of the peptide Ro52 277–291, where sensitization of the ELISA plates was carried out at 4° C. instead of 37° C. (see the reasons above). The threshold value for positivity of each test, including that of tests based on the use of retro-inverso peptide analogues, was determined using 20 sera of healthy individuals. The antigenic activity of the peptides is also measured by ELISA using a liquid phase inhibition test.
The 30 sera (positive or negative with respect to the L peptide) were tested in parallel with the RIa and RIb analogues. It was shown that all the sera positive with the L peptide were also positive with the retro-inverso peptides. […] The mean optical density corresponding to the arithmetic mean of all the optical density values, including the values below the threshold line of positivity, is 0.21 (standard deviation 0.25) and 0.51 (standard deviation 0.62) with the L and RIb peptides respectively.

[11] = test system: antibodies of sera of patients bonding to the RIb peptide; assay type: binding, human

Sequence of I-E^d class II molecules (P01904 26-255 limits assumed): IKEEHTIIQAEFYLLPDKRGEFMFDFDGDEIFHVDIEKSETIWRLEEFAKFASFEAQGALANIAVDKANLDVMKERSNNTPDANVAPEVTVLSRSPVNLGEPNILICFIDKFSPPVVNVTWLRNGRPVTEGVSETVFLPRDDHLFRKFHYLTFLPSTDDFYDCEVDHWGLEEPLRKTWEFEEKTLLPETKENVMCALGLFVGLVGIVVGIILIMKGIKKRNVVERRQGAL
Sequence of I-E^d class II molecules (P01915 27-264 limits assumed): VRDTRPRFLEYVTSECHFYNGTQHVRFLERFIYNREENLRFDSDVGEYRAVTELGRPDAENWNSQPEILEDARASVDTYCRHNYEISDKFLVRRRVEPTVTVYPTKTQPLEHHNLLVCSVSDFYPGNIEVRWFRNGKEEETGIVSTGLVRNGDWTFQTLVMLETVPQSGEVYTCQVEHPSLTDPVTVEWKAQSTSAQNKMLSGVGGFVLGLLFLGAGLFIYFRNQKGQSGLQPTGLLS
Sequence of I-A^d class II molecules (P04228 24-256 limits assumed): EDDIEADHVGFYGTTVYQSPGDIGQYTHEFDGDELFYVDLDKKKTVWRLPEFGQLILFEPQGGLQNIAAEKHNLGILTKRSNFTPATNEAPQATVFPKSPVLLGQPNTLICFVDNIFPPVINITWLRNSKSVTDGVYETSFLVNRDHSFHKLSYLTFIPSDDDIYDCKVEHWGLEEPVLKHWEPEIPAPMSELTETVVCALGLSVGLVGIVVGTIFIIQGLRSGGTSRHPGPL
Sequence of I-A^d class II molecules (P01921 28-265 limits assumed): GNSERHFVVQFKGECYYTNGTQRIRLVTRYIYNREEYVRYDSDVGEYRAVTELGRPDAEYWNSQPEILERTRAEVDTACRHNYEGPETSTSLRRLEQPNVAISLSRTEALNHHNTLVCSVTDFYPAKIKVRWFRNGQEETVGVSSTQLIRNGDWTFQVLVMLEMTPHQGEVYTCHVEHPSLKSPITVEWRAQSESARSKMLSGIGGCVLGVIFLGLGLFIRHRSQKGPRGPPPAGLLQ

For CC[C@@H](C)[C@@H](NC(=O)CNC(=O)CNC(=O)[C@H](N)CS)C(=O)N[C@H](CCCNC(=N)N)C(=O)NCC(=O)N[C@H](CCC(=O)O)C(=O)N[C@H](CCCNC(=N)N)C(=O)N[C@H](C)C(=O)O [D peptide] (HELM PEPTIDE1{[dC].G.G.[dI].[dR].G.[dE].[dR].[dA]}$$$$V2.0), the “BIAcore (Ka M^−1) affinity constant at equilibrium” value [1] was 1e+10 M⁻¹, the “Ka (affinity constant at equilibrium)” value [1] was 13,000 ×10^6 M^−1 and the “BIAcore (Ka M^−1) affinity constant at equilibrium” value [2] was 1e+07 M⁻¹. The “Ka (affinity constant at equilibrium)” value [2] was 1.2e+07 M⁻¹, the “time to complete loss of immunological activity on digestion with immobilized trypsin” value (trypsin) was greater than 240 min and the half-life (in vitro) was 1.22 h.

For “Ac-CKAFSNSYPYDVPDYASL-NH2 [double blocked L-peptide *C18L*]”, the “recognition by the tested antibodies (ELISA)” value [3] was “substantially recognized in the same way”.

In the case of “Ac-YFMYSKLRVQKSC-NH2 [L-peptide 435–446 of γ2a^b]”, the “reduction of the IL-2 production level” value (I-A^d class II molecules) is reported as greater than 88%, the “inhibition (of IL-2 production / binding of cI 12–26)” value (I-E^d class II molecules) is reported as “Up to 84%” and the “proliferation and IL-2 production of lymph node cells of mice immunized with retro-inverso analogue 435–446 of γ2a^b, stimulated by the peptide” value [4] is reported as “proliferation of lymph node cells and IL-2 production were observed”. The “proliferation of T-lymphocytes of mice immunized with parent peptide 435–446 of γ2a^b, stimulated by the peptide” value [4] was “induced a proliferative T-cell response”, the “IL-2 production of T-lymphocytes of mice immunized with parent peptide 435–446 of γ2a^b, stimulated by the peptide” value [5] was “only observed after stimulation by the parent peptide” and the “maximal IL-2 secretion measured using CTL-L cells in the presence of Con A” value (“maximal IL-2 secretion measured” for short) [5] was 21 565 cpm. For the same compound, the “cross-reaction in ELISA of antibodies raised against the peptide with the counterpart (L or retro-inverso) peptide” value (BALB/c mice) was “showed no cross-reaction”.

For “CH3CO-(D)Cys-(D)Ser-(D)Lys-(D)Gln-(D)Val-(D)Arg-(D)Leu-(D)Lys-(D)Ser-(D)Tyr-(D)Met-(D)Phe-(D)Tyr-NH2 [retro-inverso peptide 435–446 of γ2a^b]”, the “inhibition, in words” value (I-A^d class II molecules) was “almost no inhibition”, the “reduction of the IL-2 production” value (I-A^d class II molecules) was “about 35%” and the “inhibition (of IL-2 production / binding of cI 12–26)” value (I-E^d class II molecules) was no more than 48%. The “IL-2 production of T-lymphocytes of mice immunized with parent peptide 435–446 of γ2a^b, stimulated by the peptide” value [5] was “failed to induce detectable IL-2 secretion” and the “maximal IL-2 secretion measured” value [5] was 26 445 cpm.

With “CH3CO-Lys-Leu-Phe-AI a-Val-Trp-Lys-Ile-Thr-Tyr-Lys-Asp-Thr-NH2 [L-peptide 103–115 of poliovirus VP1]” the “binding to I-A^d transfected fibroblasts, in words” value (I-A^d class II molecules) was “Neither the L- nor the retro-inverso peptides bound”, the “inhibition (of IL-2 production / binding of cI 12–26)” value (I-E^d class II molecules) was “up to 77%” and the “proliferation of T-lymphocytes of mice immunized with retro-inverso analogue 103–115, in response to the peptide” value [4] was “a good proliferative response”. For the same compound, the “proliferation of lymph node cells of mice immunized with parent peptide 103–115, stimulated in vitro by the peptide” value [4] was “proliferated”, the “IL-2 production of T-lymphocytes of mice immunized with retro-inverso analogue 103–115, in response to the peptide” value [5] was “IL-2 production were also found” and the “IL-2 production of lymph node cells of mice immunized with parent peptide 103–115, stimulated in vitro by the peptide” value [5] was “produced significant levels of IL-2”. For the same compound, the “maximal IL-2 secretion measured” value [5] was 10 990 cpm, the “IL-2 production of T-cell hybridomas stimulated by the peptide” value [6] was “produced high levels of IL-2” and the “IL-2 production by T-cells primed with the retro-inverso analogue 103–115 in response to the peptide” value [7] was “significantly increased”. The “cross-reaction in ELISA of antibodies raised against the peptide with the counterpart (L or retro-inverso) peptide” value (BALB/c mice) was “cross-reacted, although less efficiently”.

In the case of “CH3CO-Ser → Ala → Pro → Ala → Thr → Gly → Gly → Val → Lys → Lys → Pro → His → Arg → Tyr → Arg → Pro → Gly → Thr-NH2 [blocked L peptide 28–45]”, the “number of positive sera” value [8] is reported as 20, the “number of positive sera DLE” value [8] is reported as 12 and the “percentage of positive sera” value [8] is reported as 29%.

In the case of GILGFVFAL [Ala 65], the “fixing to the molecule HLA-A2 (fluorescence), in words” value (from here on “fixing to the molecule HLA-A2”) (HLA-A2) is reported as “very active”.

With GLLGFVFTL [Leu 59] the “fixing to the molecule HLA-A2” value (HLA-A2) was “very active”.

In the case of “H2 N-D-Val ← D-Cys ← D-Glu ← D-Lys ← D-Leu ← D-Cys ← D-Asn ← D-Glu ← D-Lys ← D-Leu ← D-Leu ← D-Lys ← D-Lys ← D-Ala ← D-Arg ← D-Ile ← D-His ← D-Pro ← D-Phe ← D-His ← D-Ile-COCH3 [Blocked RI peptide 304–324 of Ro60]”, the mean optical density [9] is reported as 1.15, the “number of sera which reacted” value [9] is reported as 15/20 and the “percentage of sera which reacted” value [9] is reported as 75%.

With “H2N-Gly ← D-Leu ← D-Lys ← D-Lys ← D-Nle ← D-Leu ← D-Arg ← D-Thr ← D-Cys ← D-Ala ← D-Val ← D-His ← D-Ile ← D-Thr ← (R,S)-mLeu-OH [RIb peptide]” the “sera of patients tested in which anti-peptide 277–291 antibodies are detected” value ([10]; 30 sera of DLE and SS patients) was 50%, the mean optical density ([10]; arithmetic mean of all 30 sera, peptide 277–291 of Ro52) was 0.51 and the “number of sera which reacted among the 25 sera negative with the L peptide” value ([10]; threshold 0.30 OD units) was 10. For the same compound, the “inhibition of bonding of the antibodies to the RIb peptide” value [11] was “up to 79.2%”.

In the case of “H → Gly → Leu → Lys → Lys→ Nle → Leu → Arg → Thr → Cys → Ala → Val → His → Ile → Thr → Leu → OH [L peptide 277–291]”, the “inhibition of bonding of the antibodies to the RIb peptide” value [11] is reported as “up to 75.8%”.

For “H-CKAFSNSYPYDVPDYASL-OH [parent L-peptide C18L]”, the “recognition by the tested antibodies (ELISA)” value [3] was “substantially recognized in the same way”.

With “H-Ser → Ala → Pro → Ala → Thr → Gly → Gly → Val → Lys → Lys → Pro → His → Arg → Tyr → Arg → Pro → Gly → Thr-OH [natural L peptide 28–45]” the “number of positive sera” value [8] was 12, the “number of positive sera DLE” value [8] was 8 and the “percentage of positive sera” value [8] was 17.4%.

For [gLeu^60–mGly^61] M58–66 [GG5], the “fixing to the molecule HLA-A2” value (HLA-A2) was “do not bond to the HLA-A2 molecule”.
